Measurements taken from PubChem BioAssay AID1963976 (Molecular Pharmacology Branch, DTP, NCI, 2024).

System: 435261-313-R-J1-PDC tumor spheroid viability
Test: Anticancer human tumor 435261-313-R-J1-PDC patient-derived colon adenocarcinoma cell line growth inhibition [PI3K]
Settings: spheroids with HUVEC and MSC; for viability, T/C: stronger effect = lower value
Summary of the method: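 Multi-cell spheroids combine tumor cells with HUVEC and human MSCs, treated with targeted agents alone or with inavolisib, alpelisib, duvelisib or copanlisib. Concentrations fall in half-log steps from at or near clinical Cmax, or from 10 microM where Cmax is unknown; viability read-out.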

[1] = curve of first compound, second compound 0.0316 µM
[2] = curve of first compound, second compound 0.1 µM
[3] = curve of first compound, second compound 0.316 µM
[4] = curve of first compound, second compound 1 µM
[5] = second compound 0.0316 µM, first compound 0.0316 µM
[6] = second compound 0.0316 µM, first compound 0.1 µM
[7] = second compound 0.0316 µM, first compound 0.316 µM
[8] = second compound 0.0316 µM, first compound 1 µM
[9] = second compound 0.0316 µM, first compound 3.16 µM
[10] = second compound 0.0316 µM, first compound 10 µM
[11] = second compound 0.1 µM, first compound 0.0316 µM
[12] = second compound 0.1 µM, first compound 0.1 µM
[13] = second compound 0.1 µM, first compound 0.316 µM
[14] = second compound 0.1 µM, first compound 1 µM
[15] = second compound 0.1 µM, first compound 3.16 µM
[16] = second compound 0.1 µM, first compound 10 µM
[17] = second compound 0.316 µM, first compound 0.0316 µM
[18] = second compound 0.316 µM, first compound 0.1 µM
[19] = second compound 0.316 µM, first compound 0.316 µM
[20] = second compound 0.316 µM, first compound 1 µM
[21] = second compound 0.316 µM, first compound 3.16 µM
[22] = second compound 0.316 µM, first compound 10 µM
[23] = second compound 1 µM, first compound 0.0316 µM
[24] = second compound 1 µM, first compound 0.1 µM
[25] = second compound 1 µM, first compound 0.316 µM
[26] = second compound 1 µM, first compound 1 µM
[27] = second compound 1 µM, first compound 3.16 µM
[28] = second compound 1 µM, first compound 10 µM
[29] = curve of first compound, second compound 3.16 µM
[30] = curve of first compound, second compound 10 µM
[31] = second compound 3.16 µM, first compound 0.0316 µM
[32] = second compound 3.16 µM, first compound 0.1 µM
[33] = second compound 3.16 µM, first compound 0.316 µM
[34] = second compound 3.16 µM, first compound 1 µM
[35] = second compound 3.16 µM, first compound 3.16 µM
[36] = second compound 3.16 µM, first compound 10 µM
[37] = second compound 10 µM, first compound 0.0316 µM
[38] = second compound 10 µM, first compound 0.1 µM
[39] = second compound 10 µM, first compound 0.316 µM
[40] = second compound 10 µM, first compound 1 µM
[41] = second compound 10 µM, first compound 3.16 µM
[42] = second compound 10 µM, first compound 10 µM
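Note: spheroids exposed to compounds for 7 days.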

CNC(=O)c1ccc(N2C(=S)N(c3ccc(C#N)c(C(F)(F)F)c3)C(=O)C2(C)C)cc1F + CC(Nc1ccc2c(c1)OCCn1cc(N3C(=O)OCC3C(F)F)nc1-2)C(N)=O
IC50 (curve of first compound, second compound 0.00316 µM): > 10000 nM
IC50 (curve of first compound, second compound 0.01 µM): > 10000 nM
IC50 [1]: > 10000 nM
IC50 [2]: < 31.6 nM
IC50 [3]: < 31.6 nM
IC50 [4]: < 31.6 nM
viability, T/C (second compound 0.00316 µM, first compound 0.0316 µM): 73.1%
viability, T/C (second compound 0.00316 µM, first compound 0.1 µM): 95.5%
viability, T/C (second compound 0.00316 µM, first compound 0.316 µM): 74.7%
viability, T/C (second compound 0.00316 µM, first compound 1 µM): 101%
viability, T/C (second compound 0.00316 µM, first compound 3.16 µM): 106%
viability, T/C (second compound 0.00316 µM, first compound 10 µM): 93.2%
viability, T/C (second compound 0.01 µM, first compound 0.0316 µM): 81.7%
viability, T/C (second compound 0.01 µM, first compound 0.1 µM): 92.6%
viability, T/C (second compound 0.01 µM, first compound 0.316 µM): 77.2%
viability, T/C (second compound 0.01 µM, first compound 1 µM): 96%
viability, T/C (second compound 0.01 µM, first compound 3.16 µM): 141%
viability, T/C (second compound 0.01 µM, first compound 10 µM): 123%
viability, T/C [5]: 69.8%
viability, T/C [6]: 77.3%
viability, T/C [7]: 57.7%
viability, T/C [8]: 82.9%
viability, T/C [9]: 84.6%
viability, T/C [10]: 68.2%
viability, T/C [11]: 48.9%
viability, T/C [12]: 28.5%
viability, T/C [13]: 44.9%
viability, T/C [14]: 51.9%
viability, T/C [15]: 36.8%
viability, T/C [16]: 29.6%
viability, T/C [17]: 22.3%
viability, T/C [18]: 19.2%
viability, T/C [19]: 15.5%
viability, T/C [20]: 24.6%
viability, T/C [21]: 24%
viability, T/C [22]: 17.5%
viability, T/C [23]: 15.5%
viability, T/C [24]: 15.6%
viability, T/C [25]: 15.3%
viability, T/C [26]: 15.2%
viability, T/C [27]: 18.8%
viability, T/C [28]: 12.8%

Cc1nc(NC(=O)N2CCCC2C(N)=O)sc1-c1ccnc(C(C)(C)C(F)(F)F)c1 (stereo unspecified)
viability, T/C (compound 0.1 µM): 82.1% [middle of 6 runs]
viability, T/C (compound 0.316 µM): 64.4% [middle of 6 runs]
viability, T/C (compound 1 µM): 27.3% [middle of 6 runs]
viability, T/C (compound 3.16 µM): 17.2% [middle of 6 runs]
viability, T/C (compound 10 µM): 7% [middle of 6 runs]
IC50 (compound alone, run of 06/12/2023): 447 nM [middle of 6 runs]

Cn1nccc1Nc1nccc(-c2ccn(C(CO)c3ccc(Cl)c(F)c3)c(=O)c2)n1 (stereo unspecified)
viability, T/C (compound 0.316 µM): 68.2% [middle of 4 runs]
viability, T/C (compound 1 µM): 45.7% [middle of 4 runs]
viability, T/C (compound 3.16 µM): 30.4% [middle of 4 runs]
viability, T/C (compound 10 µM): 18.4% [middle of 4 runs]

C=CC(=O)N1CCN(c2nc(=O)n(-c3c(C)ccnc3C(C)C)c3nc(-c4c(O)cccc4F)c(F)cc23)C(C)C1 (stereo unspecified) + Cc1nc(NC(=O)N2CCCC2C(N)=O)sc1-c1ccnc(C(C)(C)C(F)(F)F)c1
IC50 [1]: > 10000 nM
IC50 [2]: > 10000 nM
IC50 [3]: > 10000 nM
IC50 [4]: < 31.6 nM
IC50 [29]: < 31.6 nM
IC50 [30]: < 31.6 nM
viability, T/C [5]: 70.5%
viability, T/C [6]: 84%
viability, T/C [7]: 80.8%
viability, T/C [8]: 91.5%
viability, T/C [9]: 112%
viability, T/C [10]: 121%
viability, T/C [11]: 71.5%
viability, T/C [12]: 71.3%
viability, T/C [13]: 73.5%
viability, T/C [14]: 75%
viability, T/C [15]: 129%
viability, T/C [16]: 119%
viability, T/C [17]: 49.5%
viability, T/C [18]: 52.4%
viability, T/C [19]: 56.9%
viability, T/C [20]: 58.4%
viability, T/C [21]: 77.1%
viability, T/C [22]: 78.9%
viability, T/C [23]: 35.1%
viability, T/C [24]: 25.1%
viability, T/C [25]: 27.6%
viability, T/C [26]: 39.6%
viability, T/C [27]: 36.6%
viability, T/C [28]: 54.8%
viability, T/C [31]: 15.3%
viability, T/C [32]: 19.4%
viability, T/C [33]: 17.9%
viability, T/C [34]: 23%
viability, T/C [35]: 24.3%
viability, T/C [36]: 18.6%
viability, T/C [37]: 9.68%
viability, T/C [38]: 9.35%
viability, T/C [39]: 8.96%
viability, T/C [40]: 9.4%
viability, T/C [41]: 9.55%
viability, T/C [42]: 6.21%

Cn1ncc(Cl)c1-c1cc(C(=O)NC(CN)Cc2cccc(F)c2)sc1Cl (stereo unspecified) + CC(Nc1ncnc2nc[nH]c12)c1cc2cccc(Cl)c2c(=O)n1-c1ccccc1
IC50 [1]: 1400 nM
IC50 [2]: 527 nM
IC50 [3]: 565 nM
IC50 [4]: 863 nM
IC50 [29]: 679 nM
IC50 [30]: 155 nM
viability, T/C [5]: 95.1%
viability, T/C [6]: 74.4%
viability, T/C [7]: 75.1%
viability, T/C [8]: 63.1%
viability, T/C [9]: 27.8%
viability, T/C [10]: 14.2%
viability, T/C [11]: 86.6%
viability, T/C [12]: 96.7%
viability, T/C [13]: 50%
viability, T/C [14]: 39.9%
viability, T/C [15]: 23.9%
viability, T/C [16]: 9.05%
viability, T/C [17]: 106%
viability, T/C [18]: 58.1%
viability, T/C [19]: 87.8%
viability, T/C [20]: 26.8%
viability, T/C [21]: 22.5%
viability, T/C [22]: 10.6%
viability, T/C [23]: 94.7%
viability, T/C [24]: 82.9%
viability, T/C [25]: 70.8%
viability, T/C [26]: 47.7%
viability, T/C [27]: 25.6%
viability, T/C [28]: 15.7%
viability, T/C [31]: 87.3%
viability, T/C [32]: 81.8%
viability, T/C [33]: 66.8%
viability, T/C [34]: 40.5%
viability, T/C [35]: 21.9%
viability, T/C [36]: 9.23%
viability, T/C [37]: 62.1%
viability, T/C [38]: 62.8%
viability, T/C [39]: 35%
viability, T/C [40]: 27.5%
viability, T/C [41]: 22.1%
viability, T/C [42]: 6.29%
